Experimental data as given in PubChem BioAssay AID2060910 (Molecular Pharmacology Branch, DTP, NCI, 2025).
pIC50: −log10 of the molar value. Values belong to the compound of their own block, whether it stands above or below them.

Tested on: 242566-281-R-J2-PDC complex spheroid viability
Assay: Anticancer human tumor 242566-281-R-J2-PDC patient-derived pancreatic carcinoma cell line growth inhibition [RAS]
Settings: for pIC50: curve of first compound; for viability, T/C: stronger effect = lower value
In short: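 Agents were tested in combination matrices in half-log decrements from a top concentration at or near clinical Cmax (10 microM if undetermined). Targets were multi-cell spheroids of tumour lines plus HUVEC and MSC stromal cells.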

[1] = second compound 0.000949 µM, first compound 0.00316 µM
[2] = second compound 0.000949 µM, first compound 0.01 µM
[3] = second compound 0.000949 µM, first compound 0.0316 µM
[4] = second compound 0.000949 µM, first compound 0.1 µM
[5] = second compound 0.003 µM, first compound 0.00316 µM
[6] = second compound 0.003 µM, first compound 0.01 µM
[7] = second compound 0.003 µM, first compound 0.0316 µM
[8] = second compound 0.003 µM, first compound 0.1 µM
[9] = second compound 0.00949 µM, first compound 0.00316 µM
[10] = second compound 0.00949 µM, first compound 0.01 µM
[11] = second compound 0.00949 µM, first compound 0.0316 µM
[12] = second compound 0.00949 µM, first compound 0.1 µM
[13] = second compound 0.03 µM, first compound 0.00316 µM
[14] = second compound 0.03 µM, first compound 0.01 µM
[15] = second compound 0.03 µM, first compound 0.0316 µM
[16] = second compound 0.03 µM, first compound 0.1 µM
[17] = second compound 0.0949 µM, first compound 0.00316 µM
[18] = second compound 0.0949 µM, first compound 0.01 µM
[19] = second compound 0.0949 µM, first compound 0.0316 µM
[20] = second compound 0.0949 µM, first compound 0.1 µM
[21] = second compound 0.3 µM, first compound 0.00316 µM
[22] = second compound 0.3 µM, first compound 0.01 µM
[23] = second compound 0.3 µM, first compound 0.0316 µM
[24] = second compound 0.3 µM, first compound 0.1 µM
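Note: spheroids exposed to compound for 7 days before readout.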
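Throughout, for viability, T/C: 100% = DMSO vehicle control wells.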

- pIC50 (second compound 0.000949 µM): 6.49
- pIC50 (second compound 0.003 µM): 7.15
- pIC50 (second compound 0.00949 µM): > 8.50
- pIC50 (second compound 0.03 µM): > 8.50
- pIC50 (second compound 0.0949 µM): > 8.50
- pIC50 (second compound 0.3 µM): > 8.50
Compound: C=CC(=O)Nc1cc(Nc2nccc(-c3cn(C)c4ccccc34)n2)c(OC)cc1N(C)CCN(C)C + CCn1c(-c2cc(N3CCN(C)CC3)cnc2C(C)OC)c2c3cc(ccc31)-c1csc(n1)CC(NC(=O)C1CC1C)C(=O)N1CCCC(N1)C(=O)OCC(C)(C)C2
- viability, T/C [1]: 90.9%
- viability, T/C [2]: 90%
- viability, T/C [3]: 61.8%
- viability, T/C [4]: 75.8%
- viability, T/C (second compound 0.000949 µM, first compound 0.316 µM): 51.8%
- viability, T/C (second compound 0.000949 µM, first compound 1 µM): 25.3%
- viability, T/C [5]: 76%
- viability, T/C [6]: 61.4%
- viability, T/C [7]: 54.9%
- viability, T/C [8]: 52.2%
- viability, T/C (second compound 0.003 µM, first compound 0.316 µM): 35.2%
- viability, T/C (second compound 0.003 µM, first compound 1 µM): 19%
- viability, T/C [9]: 48.4%
- viability, T/C [10]: 40.9%
- viability, T/C [11]: 41.2%
- viability, T/C [12]: 30.7%
- viability, T/C (second compound 0.00949 µM, first compound 0.316 µM): 21.2%
- viability, T/C (second compound 0.00949 µM, first compound 1 µM): 15.3%
- viability, T/C [13]: 31.3%
- viability, T/C [14]: 30.7%
- viability, T/C [15]: 24%
- viability, T/C [16]: 22%
- viability, T/C (second compound 0.03 µM, first compound 0.316 µM): 14.8%
- viability, T/C (second compound 0.03 µM, first compound 1 µM): 16.7%
- viability, T/C [17]: 21.2%
- viability, T/C [18]: 20.6%
- viability, T/C [19]: 20.1%
- viability, T/C [20]: 18.1%
- viability, T/C (second compound 0.0949 µM, first compound 0.316 µM): 13%
- viability, T/C (second compound 0.0949 µM, first compound 1 µM): 15.9%
- viability, T/C [21]: 18.6%
- viability, T/C [22]: 18.2%
- viability, T/C [23]: 15.7%
- viability, T/C [24]: 14%
- viability, T/C (second compound 0.3 µM, first compound 0.316 µM): 14.6%
- viability, T/C (second compound 0.3 µM, first compound 1 µM): 14.9%

- pIC50 (second compound 0.00316 µM): 6.97
- pIC50 (second compound 0.01 µM): 6.95
- pIC50 (second compound 0.0316 µM): 6.99
- pIC50 (second compound 0.1 µM): 7.01
- pIC50 (second compound 0.316 µM): 7.24
- pIC50 (second compound 1 µM): 7.01
Compound: Nc1ccn(C2OC(CO)C(O)C2(F)F)c(=O)n1 (stereo unspecified) + C=CC(=O)N1CCN(c2nc(OCC3CCCN3C)nc3c(F)c(-c4nc(N)cc(C)c4C(F)(F)F)c(Cl)cc23)C(C)C1
- viability, T/C (second compound 0.00316 µM, first compound 0.00316 µM): 101%
- viability, T/C (second compound 0.00316 µM, first compound 0.01 µM): 118%
- viability, T/C (second compound 0.00316 µM, first compound 0.0316 µM): 92.6%
- viability, T/C (second compound 0.00316 µM, first compound 0.1 µM): 52.1%
- viability, T/C (second compound 0.00316 µM, first compound 0.316 µM): 25.9%
- viability, T/C (second compound 0.00316 µM, first compound 1 µM): 18.4%
- viability, T/C (second compound 0.01 µM, first compound 0.00316 µM): 123%
- viability, T/C (second compound 0.01 µM, first compound 0.01 µM): 128%
- viability, T/C (second compound 0.01 µM, first compound 0.0316 µM): 93.6%
- viability, T/C (second compound 0.01 µM, first compound 0.1 µM): 53.8%
- viability, T/C (second compound 0.01 µM, first compound 0.316 µM): 26%
- viability, T/C (second compound 0.01 µM, first compound 1 µM): 16.2%
- viability, T/C (second compound 0.0316 µM, first compound 0.00316 µM): 103%
- viability, T/C (second compound 0.0316 µM, first compound 0.01 µM): 147%
- viability, T/C (second compound 0.0316 µM, first compound 0.0316 µM): 74.3%
- viability, T/C (second compound 0.0316 µM, first compound 0.1 µM): 60%
- viability, T/C (second compound 0.0316 µM, first compound 0.316 µM): 21.6%
- viability, T/C (second compound 0.0316 µM, first compound 1 µM): 15.8%
- viability, T/C (second compound 0.1 µM, first compound 0.00316 µM): 134%
- viability, T/C (second compound 0.1 µM, first compound 0.01 µM): 124%
- viability, T/C (second compound 0.1 µM, first compound 0.0316 µM): 91.3%
- viability, T/C (second compound 0.1 µM, first compound 0.1 µM): 50.8%
- viability, T/C (second compound 0.1 µM, first compound 0.316 µM): 21.5%
- viability, T/C (second compound 0.1 µM, first compound 1 µM): 19.1%
- viability, T/C (second compound 0.316 µM, first compound 0.00316 µM): 115%
- viability, T/C (second compound 0.316 µM, first compound 0.01 µM): 160%
- viability, T/C (second compound 0.316 µM, first compound 0.0316 µM): 75.5%
- viability, T/C (second compound 0.316 µM, first compound 0.1 µM): 41.9%
- viability, T/C (second compound 0.316 µM, first compound 0.316 µM): 20.6%
- viability, T/C (second compound 0.316 µM, first compound 1 µM): 15.7%
- viability, T/C (second compound 1 µM, first compound 0.00316 µM): 115%
- viability, T/C (second compound 1 µM, first compound 0.01 µM): 102%
- viability, T/C (second compound 1 µM, first compound 0.0316 µM): 83.6%
- viability, T/C (second compound 1 µM, first compound 0.1 µM): 50.9%
- viability, T/C (second compound 1 µM, first compound 0.316 µM): 22%
- viability, T/C (second compound 1 µM, first compound 1 µM): 18.9%

- pIC50 (second compound 0.000949 µM): 7.36
- pIC50 (second compound 0.003 µM): 7.35
- pIC50 (second compound 0.00949 µM): 7.60
- pIC50 (second compound 0.03 µM): 7.56
- pIC50 (second compound 0.0949 µM): 7.69
- pIC50 (second compound 0.3 µM): 7.74
Compound: CC(C)n1nc(-c2ccc3oc(N)nc3c2)c2c(N)ncnc21 + CCn1c(-c2cccnc2C(C)OC)c2c3cc(ccc31)N1CCOC(CC(NC(=O)C(C(C)C)N(C)C(=O)C3(F)CCN(C(=O)C#CC(C)(C)N(C)C)CC3)C(=O)N3CCCC(N3)C(=O)OCC(C)(C)C2)C1
- viability, T/C (second compound 0.000949 µM, first compound 0.000316 µM): 120%
- viability, T/C (second compound 0.000949 µM, first compound 0.001 µM): 86.6%
- viability, T/C [1]: 81.6%
- viability, T/C [2]: 79.8%
- viability, T/C [3]: 62.2%
- viability, T/C [4]: 30.4%
- viability, T/C (second compound 0.003 µM, first compound 0.000316 µM): 95.6%
- viability, T/C (second compound 0.003 µM, first compound 0.001 µM): 80.3%
- viability, T/C [5]: 76.2%
- viability, T/C [6]: 73%
- viability, T/C [7]: 61.6%
- viability, T/C [8]: 30.9%
- viability, T/C (second compound 0.00949 µM, first compound 0.000316 µM): 102%
- viability, T/C (second compound 0.00949 µM, first compound 0.001 µM): 77.9%
- viability, T/C [9]: 87.7%
- viability, T/C [10]: 75%
- viability, T/C [11]: 43.4%
- viability, T/C [12]: 33.9%
- viability, T/C (second compound 0.03 µM, first compound 0.000316 µM): 89.5%
- viability, T/C (second compound 0.03 µM, first compound 0.001 µM): 87.6%
- viability, T/C [13]: 92.4%
- viability, T/C [14]: 72.7%
- viability, T/C [15]: 47.6%
- viability, T/C [16]: 37.9%
- viability, T/C (second compound 0.0949 µM, first compound 0.000316 µM): 76.1%
- viability, T/C (second compound 0.0949 µM, first compound 0.001 µM): 78.8%
- viability, T/C [17]: 83.5%
- viability, T/C [18]: 67.2%
- viability, T/C [19]: 39.5%
- viability, T/C [20]: 31.9%
- viability, T/C (second compound 0.3 µM, first compound 0.000316 µM): 88%
- viability, T/C (second compound 0.3 µM, first compound 0.001 µM): 82%
- viability, T/C [21]: 70.5%
- viability, T/C [22]: 58.8%
- viability, T/C [23]: 42.4%
- viability, T/C [24]: 30%
